The text below walks through data of publication PMC6662551 (Clinical and Translational Science, 2019).

Data set [1] deals with OATP1B1. The following applies: c.521T>C carriers; cited from earlier work.
In data set [2] the test system is OATP1B1. Type of data set: in vivo, human. The following applies: human, plasma, oral; for AUC(0-t): AUClast, 0.25-12 hour; for C0: C0, plasma, baseline.
Data set [3] is classed as in vivo, human. The following applies: for AUClast: 0.25-12 hour; for C0: plasma.
In data set [4] the test system is 3‐hydroxy‐3‐methylglutaryl coenzyme A reductase. The following applies: relative to pravastatin; cited from earlier work.
The conditions of data set [5]: named peak only.
The mark [6] stands for this setting: pravastatin + cyclosporine, CC (N = 2).
The mark [7] stands for this setting: pravastatin + cyclosporine, TC (N = 6).
The mark [8] stands for this setting: pravastatin + cyclosporine, TT (N = 8).
[9] abbreviates: pravastatin + placebo, CC (N = 2).
Where [10] appears, read: pravastatin + placebo, TC (N = 6).
[11] abbreviates: pravastatin + cyclosporine, all genotype (N = 16).
The mark [12] stands for this setting: pravastatin + placebo, TT (N = 8).
[13] abbreviates: pravastatin + placebo, all genotype (N = 16).

“And” between values parts separate entries of the source, which are not always exact repeats. Equal values may be shown once. Read-outs that look alike come from different tables or passages of the source.

On to `CCOc1cc(CC(=O)N[C@@H](CC(C)C)c2ccccc2N2CCCCC2)ccc1C(=O)O` [repaglinide], for which the “increase in plasma levels in individuals with the OATP1B1‐Val174Ala variant” value in the data set with OATP1B1 [1] was 1.5–3 fold.
Regarding `O=C(O)CCCCCCCCCCCCCCC(=O)O` [HDA, hexadecanedioic acid], the AUC(0-t) with OATP1B1 [2] (setting [6]) was found to be 1.68 µM·h; in the data set on OATP1B1 [2] (setting [7]), 0.853 ± 0.303 µM·h; with OATP1B1 [2] (setting [8]) it was 1.07 µM·h; with OATP1B1 [2] (setting [9]) it was 1.45 µM·h; in the data set with OATP1B1 [2] (setting [10]), 0.506 ± 0.116 µM·h. Besides, the C0 in the data set with OATP1B1 [2] (pravastatin + placebo, CC) stood at 114 ± 47.5 nM; in the data set with OATP1B1 [2] (pravastatin + placebo, TC), 43.1 ± 13.4 nM; in the data set on OATP1B1 [2] (pravastatin + placebo, TT), 52 ± 29.6 nM; in data set [3] (12 hours after first CsA dose, pravastatin + cyclosporine, all genotype), 84 ± 33 nM; in data set [3] (baseline, pravastatin + placebo, all genotype) it was 60.1 ± 37 nM. Also, the values for the AUClast in data set [3] (setting [11]), in data set [3] (setting [12]) and in data set [3] (setting [13]) were 1,070 ± 357 nM·hour, 557 ± 161 nM·h and 649 ± 346 nM·h, respectively. The “C0 fold increase, pravastatin plus CsA over pravastatin plus placebo” value stood at 1.0 fold in data set [3] (CC), 1.6 fold in data set [3] (TC) and 1.7 fold in data set [3] (TT). Besides, the “AUClast fold increase, pravastatin plus CsA over pravastatin plus placebo” value in data set [3] (CC (N = 2)) was determined as 1.2 fold; in data set [3] (TC (N = 6)) it was 1.7 fold; in data set [3] (TT (N = 8)) it was 2.0 fold; in data set [3] (all genotype), 1.8 fold. The “Cavg fold increase, pravastatin plus CsA over pravastatin plus placebo” value in data set [3] (CC (N = 2)) was determined as 1.2 fold; in data set [3] (TC (N = 6)), 2.0 fold; in data set [3] (TT (N = 8)), 2.2 fold; in data set [3] (all genotype), 2.0 fold. For the same molecule, the “Cmax fold increase, pravastatin plus CsA over pravastatin plus placebo” value in data set [3] (all genotype (N = 16)) was 2.1 fold. Further, in data set [3] (endogenous biomarker), the “ratio of mean AUC in SLCO1B1 c.521‐CC to c.521TT” value amounted to 2.6 fold. For the same molecule, the figures for the Cmax in data set [3] (pravastatin + cyclosporine (N = 16)) and in data set [3] (pravastatin + placebo (N = 16)) were 155 ± 55.1 nM and 90.6 ± 77.3 nM, respectively. Moreover, the Cavg in data set [3] (setting [6]) turned out to be 149 ± 5.0 nM; in data set [3] (setting [7]), 86.9 ± 33.0 nM; in data set [3] (setting [8]), 98.5 ± 27.8 nM; in data set [3] (setting [11]), 100 ± 33.3 nM; in data set [3] (setting [9]) it was 135 ± 46.6 nM; in data set [3] (setting [10]), 44.0 ± 11.5 nM. Besides, the Cavg in data set [3] (setting [12]) is 46.1 ± 14.3 nM; in data set [3] (setting [13]) it was 56.4 ± 35.1 nM and 56.4 ± 35.1****^, ^b nM. In addition, the “increase in plasma concentration, Cmax over baseline” value in data set [3] (pravastatin plus placebo, individuals homozygous c.521‐CC) is “at least twofold”. Also, the “time of peak plasma level” value in data set [3] (two individuals c.521‐CC) is “around 3 hours and 3.0 hours”.
For 3′α‐hydroxy‐pravastatin, the “inhibitory activity relative to the parent compound” value in data set [4] is “one‐tenth to one‐fortieth”. In addition, the “ratio of mean AUC0→12 in SLCO1B1 c.521CC and c.521TT” value in data set [5] is 1.2 fold.
`CC(C)c1nc(N(C)S(C)(=O)=O)nc(-c2ccc(F)cc2)c1/C=C/[C@@H](O)C[C@@H](O)CC(=O)O` [rosuvastatin]: the “increase in plasma levels in individuals with the OATP1B1‐Val174Ala variant” value with OATP1B1 [1] is 1.5–3 fold.

By AUC(0-t) is commonly meant exposure summed from dosing to a finite time, without extrapolation to infinity. In general, Cmax refers to the highest concentration seen after dosing.
